Results as given in the NIST ThermoML archive (doi:10.1016/j.jct.2017.03.006).

Test: xn = mol fraction of the nth substance listed
Details: Liquid; for mass density: 293.15 K, Vibrating tube method; for viscosity: Concentric cylinders viscometry

Cc1ccc(C)c(C)c1 [1,2,4-trimethylbenzene] + CCCCO
mass density [kg/m3]
Details	x2 = 0	x2 = 0.1005	x2 = 0.2261	x2 = 0.2999	x2 = 0.3966	x2 = 0.5289	x2 = 0.6367	x2 = 0.7249	x2 = 0.7977	x2 = 0.9131
100 kPa	–	–	–	859.9	854.5	846.5	839.4	833.1	827.5	817.8
1000 kPa	875.7	870.8	864.3	860.4	855	847.1	840	833.7	828.1	818.4
5000 kPa	878.2	873.4	867	863.1	857.8	849.8	842.8	836.5	831	821.3
10000 kPa	881.4	876.6	870.2	866.4	861.1	853.1	846.1	839.9	834.3	824.7
20000 kPa	887.3	882.6	876.2	872.5	867.2	859.4	852.3	846.2	840.6	831.1
30000 kPa	892.9	888.3	881.9	878.2	873	865.2	858.2	852.1	846.5	837.1
40000 kPa	898.2	893.7	887.4	883.6	878.5	870.7	863.7	857.6	852.1	842.7
50000 kPa	903.2	898.7	892.4	888.8	883.6	875.8	868.9	862.8	857.3	847.9
60000 kPa	908	903.5	897.3	893.6	888.6	880.8	873.8	867.8	862.3	852.9
70000 kPa	912.6	908.3	901.9	898.4	893.2	885.5	878.6	872.6	867	857.7
80000 kPa	916.9	912.6	906.4	902.8	897.6	890	883	877	871.6	862.3
90000 kPa	921.1	916.8	910.6	907	901.9	894.2	887.4	881.3	875.9	866.6
100000 kPa	925.1	920.8	914.7	911.1	906	898.4	891.5	885.4	880	870.7
120000 kPa	932.8	928.6	922.5	918.9	913.9	906.2	899.3	893.3	887.9	878.7
140000 kPa	939.9	935.6	929.8	926	921.1	913.5	906.7	900.7	895.4	886.1

viscosity [mPa·s], 100 kPa
Details	x2 = 0	x2 = 0.1002	x2 = 0.2327	x2 = 0.3	x2 = 0.3969	x2 = 0.53	x2 = 0.637	x2 = 0.7975	x2 = 0.9131
303.15 K	0.779	0.783	0.818	0.857	0.919	1.049	1.203	1.559	1.916
313.15 K	0.692	0.69	0.716	0.744	0.787	–	–	–	–
